Measurements from ChEMBL document CHEMBL1152560, “Substituted 2-arylbenzothiazoles as kinase inhibitors: hit-to-lead optimization” (Bioorg Med Chem, 2009).

Experiments:
[1] = biological target: Receptor-type tyrosine-protein kinase FLT3 (Homo sapiens) (UniProt P36888); test: Residual activity of wild type FLT3 at 1 uM by microplate scintillation counting
[2] = biological target: Death-associated protein kinase 3 (Homo sapiens) (UniProt O43293); test: Residual activity of DAPK3 at 0.1 uM by microplate scintillation counting
[3] = biological target: MAP/microtubule affinity-regulating kinase 3 (Homo sapiens) (UniProt P27448); test: Residual activity of MARK3 at 0.1 uM by microplate scintillation counting
[4] = biological target: T1, Mitogen-activated protein kinase 12 (Homo sapiens) (UniProt P53778); test: Residual activity of p38-gamma at 1 uM by microplate scintillation counting
T1 sequence (whole entry): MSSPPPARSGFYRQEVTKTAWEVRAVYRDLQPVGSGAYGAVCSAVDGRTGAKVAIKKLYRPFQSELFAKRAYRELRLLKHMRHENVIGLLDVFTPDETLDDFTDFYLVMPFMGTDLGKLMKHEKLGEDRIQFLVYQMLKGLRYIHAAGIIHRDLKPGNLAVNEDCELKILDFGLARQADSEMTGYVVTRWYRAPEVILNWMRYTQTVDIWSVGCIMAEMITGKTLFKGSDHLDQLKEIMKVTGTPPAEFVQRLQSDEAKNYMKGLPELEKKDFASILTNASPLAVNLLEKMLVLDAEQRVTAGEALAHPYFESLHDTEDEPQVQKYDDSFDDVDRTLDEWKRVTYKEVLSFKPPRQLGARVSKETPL

[5] = biological target: T2, Tyrosine-protein kinase ZAP-70 (Homo sapiens) (UniProt P43403); test: Residual activity of ZAP70 at 1 uM by microplate scintillation counting
T2 sequence (whole entry): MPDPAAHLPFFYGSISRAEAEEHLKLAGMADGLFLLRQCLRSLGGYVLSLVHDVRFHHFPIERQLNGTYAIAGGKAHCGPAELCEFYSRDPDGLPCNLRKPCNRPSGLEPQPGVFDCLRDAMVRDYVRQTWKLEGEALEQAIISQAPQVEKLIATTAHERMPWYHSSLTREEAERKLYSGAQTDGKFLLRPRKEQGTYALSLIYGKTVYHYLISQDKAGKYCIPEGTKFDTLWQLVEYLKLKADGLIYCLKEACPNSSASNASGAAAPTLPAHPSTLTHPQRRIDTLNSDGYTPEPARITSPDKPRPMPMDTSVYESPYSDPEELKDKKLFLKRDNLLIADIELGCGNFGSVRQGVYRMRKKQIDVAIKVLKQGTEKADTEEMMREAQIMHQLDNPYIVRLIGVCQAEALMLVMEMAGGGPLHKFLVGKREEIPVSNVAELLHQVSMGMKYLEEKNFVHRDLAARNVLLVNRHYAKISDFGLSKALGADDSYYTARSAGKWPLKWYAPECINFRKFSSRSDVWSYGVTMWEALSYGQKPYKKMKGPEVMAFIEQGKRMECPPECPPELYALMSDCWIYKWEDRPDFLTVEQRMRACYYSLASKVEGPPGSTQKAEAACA

[6] = biological target: T3, Activin receptor type-1 (Homo sapiens) (UniProt Q04771); test: Residual activity of ACV-R1 at 1 uM by microplate scintillation counting
T3 sequence (whole entry): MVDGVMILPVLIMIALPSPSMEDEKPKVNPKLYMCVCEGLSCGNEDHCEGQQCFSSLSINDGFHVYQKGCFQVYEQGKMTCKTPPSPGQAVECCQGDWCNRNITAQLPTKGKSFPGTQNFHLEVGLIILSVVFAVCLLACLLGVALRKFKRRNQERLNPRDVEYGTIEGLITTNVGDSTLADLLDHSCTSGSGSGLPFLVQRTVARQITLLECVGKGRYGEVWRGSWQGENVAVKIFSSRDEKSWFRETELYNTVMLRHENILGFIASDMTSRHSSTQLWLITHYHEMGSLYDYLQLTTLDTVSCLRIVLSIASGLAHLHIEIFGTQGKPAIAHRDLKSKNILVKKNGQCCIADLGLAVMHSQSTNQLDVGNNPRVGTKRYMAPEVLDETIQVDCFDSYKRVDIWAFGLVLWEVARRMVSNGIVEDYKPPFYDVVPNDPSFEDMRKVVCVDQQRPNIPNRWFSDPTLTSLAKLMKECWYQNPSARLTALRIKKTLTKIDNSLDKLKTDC

[7] = biological target: Calcium/calmodulin-dependent protein kinase type II subunit beta (Homo sapiens) (UniProt Q13554); test: Residual activity of CAMK2B at 10 uM by microplate scintillation counting
[8] = biological target: CDK1/Cyclin A (Homo sapiens) (UniProt P06493+P20248); test: Residual activity of CDK1/Cyclin A at 10 uM by microplate scintillation counting; type: protein-complex assay
[9] = biological target: Dual specificity tyrosine-phosphorylation-regulated kinase 1B (Homo sapiens) (UniProt Q9Y463); test: Residual activity of DYRK1B at 0.1 uM by microplate scintillation counting
[10] = biological target: T4, Eukaryotic elongation factor 2 kinase (Homo sapiens) (UniProt O00418); test: Residual activity of EEF2K at 0.1 uM by microplate scintillation counting
T4 sequence (whole entry): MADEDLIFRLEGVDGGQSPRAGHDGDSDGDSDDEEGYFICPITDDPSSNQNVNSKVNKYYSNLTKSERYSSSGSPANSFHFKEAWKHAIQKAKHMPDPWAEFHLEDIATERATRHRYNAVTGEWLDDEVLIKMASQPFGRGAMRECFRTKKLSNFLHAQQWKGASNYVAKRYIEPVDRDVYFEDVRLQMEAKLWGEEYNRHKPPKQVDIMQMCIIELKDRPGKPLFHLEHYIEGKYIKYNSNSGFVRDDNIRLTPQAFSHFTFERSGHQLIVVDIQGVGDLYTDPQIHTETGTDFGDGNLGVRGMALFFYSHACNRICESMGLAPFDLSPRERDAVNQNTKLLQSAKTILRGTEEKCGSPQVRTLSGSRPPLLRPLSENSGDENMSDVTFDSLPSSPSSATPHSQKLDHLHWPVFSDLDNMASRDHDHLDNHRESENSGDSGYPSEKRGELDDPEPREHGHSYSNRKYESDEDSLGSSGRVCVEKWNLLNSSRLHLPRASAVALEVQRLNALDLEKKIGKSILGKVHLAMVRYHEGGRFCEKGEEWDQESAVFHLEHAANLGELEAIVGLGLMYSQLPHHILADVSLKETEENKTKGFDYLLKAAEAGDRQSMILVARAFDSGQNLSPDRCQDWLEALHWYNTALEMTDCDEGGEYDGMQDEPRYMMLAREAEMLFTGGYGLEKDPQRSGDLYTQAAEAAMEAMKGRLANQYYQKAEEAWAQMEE

[11] = biological target: Hepatocyte growth factor receptor (Homo sapiens) (UniProt P08581); test: Residual activity of MET at 10 uM by microplate scintillation counting
Sequence of Hepatocyte growth factor receptor (Homo sapiens) (P08581 whole entry): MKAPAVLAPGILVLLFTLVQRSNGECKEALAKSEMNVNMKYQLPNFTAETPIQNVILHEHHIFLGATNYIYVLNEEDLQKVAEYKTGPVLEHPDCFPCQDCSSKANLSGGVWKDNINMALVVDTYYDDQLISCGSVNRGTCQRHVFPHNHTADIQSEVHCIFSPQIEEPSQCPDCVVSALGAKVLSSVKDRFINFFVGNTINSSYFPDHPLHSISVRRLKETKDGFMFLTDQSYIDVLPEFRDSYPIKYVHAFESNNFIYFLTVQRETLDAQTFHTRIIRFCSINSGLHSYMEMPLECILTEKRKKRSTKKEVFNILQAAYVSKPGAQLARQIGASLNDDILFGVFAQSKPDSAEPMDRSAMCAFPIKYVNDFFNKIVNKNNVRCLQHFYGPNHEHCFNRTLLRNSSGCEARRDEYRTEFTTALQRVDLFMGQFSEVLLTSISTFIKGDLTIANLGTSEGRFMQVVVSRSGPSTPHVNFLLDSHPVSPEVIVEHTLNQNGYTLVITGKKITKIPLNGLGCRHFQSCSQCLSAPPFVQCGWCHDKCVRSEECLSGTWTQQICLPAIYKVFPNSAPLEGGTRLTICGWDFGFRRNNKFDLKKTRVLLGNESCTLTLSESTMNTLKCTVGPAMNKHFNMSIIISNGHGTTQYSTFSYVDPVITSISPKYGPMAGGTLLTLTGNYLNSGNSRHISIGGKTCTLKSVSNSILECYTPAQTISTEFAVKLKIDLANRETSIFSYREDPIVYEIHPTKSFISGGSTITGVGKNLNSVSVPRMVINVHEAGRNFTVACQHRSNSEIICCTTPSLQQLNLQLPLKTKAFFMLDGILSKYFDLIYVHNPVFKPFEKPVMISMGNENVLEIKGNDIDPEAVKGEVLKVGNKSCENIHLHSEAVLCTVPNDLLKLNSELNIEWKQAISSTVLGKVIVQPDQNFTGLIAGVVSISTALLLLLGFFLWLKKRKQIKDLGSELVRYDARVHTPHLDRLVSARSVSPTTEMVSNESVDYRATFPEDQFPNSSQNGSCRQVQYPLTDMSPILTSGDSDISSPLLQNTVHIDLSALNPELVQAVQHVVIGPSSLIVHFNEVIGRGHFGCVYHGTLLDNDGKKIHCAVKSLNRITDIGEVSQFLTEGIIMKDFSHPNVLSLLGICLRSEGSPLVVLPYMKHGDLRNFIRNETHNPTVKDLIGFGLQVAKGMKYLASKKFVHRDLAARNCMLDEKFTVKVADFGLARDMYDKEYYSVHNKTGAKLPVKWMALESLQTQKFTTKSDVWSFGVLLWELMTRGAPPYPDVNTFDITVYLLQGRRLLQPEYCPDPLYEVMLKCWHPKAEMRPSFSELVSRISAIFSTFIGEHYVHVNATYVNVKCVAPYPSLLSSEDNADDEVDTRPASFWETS

Sequence of Dual specificity tyrosine-phosphorylation-regulated kinase 1B (Homo sapiens) (Q9Y463 whole entry, looked up): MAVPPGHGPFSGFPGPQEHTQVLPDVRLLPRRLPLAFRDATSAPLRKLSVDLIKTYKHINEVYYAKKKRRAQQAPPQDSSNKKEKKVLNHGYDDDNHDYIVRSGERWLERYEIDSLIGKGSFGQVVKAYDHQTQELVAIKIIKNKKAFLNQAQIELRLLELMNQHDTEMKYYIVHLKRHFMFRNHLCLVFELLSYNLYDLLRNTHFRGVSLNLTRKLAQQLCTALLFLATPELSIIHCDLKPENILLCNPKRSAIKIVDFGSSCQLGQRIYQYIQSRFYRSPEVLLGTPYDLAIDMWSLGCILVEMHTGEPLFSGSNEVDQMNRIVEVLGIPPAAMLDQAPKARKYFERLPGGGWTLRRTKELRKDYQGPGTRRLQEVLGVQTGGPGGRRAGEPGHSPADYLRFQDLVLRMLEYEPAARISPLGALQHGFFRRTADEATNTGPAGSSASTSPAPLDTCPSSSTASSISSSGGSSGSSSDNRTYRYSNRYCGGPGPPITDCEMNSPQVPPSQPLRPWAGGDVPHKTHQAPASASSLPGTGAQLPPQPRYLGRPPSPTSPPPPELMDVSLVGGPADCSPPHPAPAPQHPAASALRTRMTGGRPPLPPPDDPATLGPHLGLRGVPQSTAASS
Sequence of Receptor-type tyrosine-protein kinase FLT3 (Homo sapiens) (P36888 whole entry): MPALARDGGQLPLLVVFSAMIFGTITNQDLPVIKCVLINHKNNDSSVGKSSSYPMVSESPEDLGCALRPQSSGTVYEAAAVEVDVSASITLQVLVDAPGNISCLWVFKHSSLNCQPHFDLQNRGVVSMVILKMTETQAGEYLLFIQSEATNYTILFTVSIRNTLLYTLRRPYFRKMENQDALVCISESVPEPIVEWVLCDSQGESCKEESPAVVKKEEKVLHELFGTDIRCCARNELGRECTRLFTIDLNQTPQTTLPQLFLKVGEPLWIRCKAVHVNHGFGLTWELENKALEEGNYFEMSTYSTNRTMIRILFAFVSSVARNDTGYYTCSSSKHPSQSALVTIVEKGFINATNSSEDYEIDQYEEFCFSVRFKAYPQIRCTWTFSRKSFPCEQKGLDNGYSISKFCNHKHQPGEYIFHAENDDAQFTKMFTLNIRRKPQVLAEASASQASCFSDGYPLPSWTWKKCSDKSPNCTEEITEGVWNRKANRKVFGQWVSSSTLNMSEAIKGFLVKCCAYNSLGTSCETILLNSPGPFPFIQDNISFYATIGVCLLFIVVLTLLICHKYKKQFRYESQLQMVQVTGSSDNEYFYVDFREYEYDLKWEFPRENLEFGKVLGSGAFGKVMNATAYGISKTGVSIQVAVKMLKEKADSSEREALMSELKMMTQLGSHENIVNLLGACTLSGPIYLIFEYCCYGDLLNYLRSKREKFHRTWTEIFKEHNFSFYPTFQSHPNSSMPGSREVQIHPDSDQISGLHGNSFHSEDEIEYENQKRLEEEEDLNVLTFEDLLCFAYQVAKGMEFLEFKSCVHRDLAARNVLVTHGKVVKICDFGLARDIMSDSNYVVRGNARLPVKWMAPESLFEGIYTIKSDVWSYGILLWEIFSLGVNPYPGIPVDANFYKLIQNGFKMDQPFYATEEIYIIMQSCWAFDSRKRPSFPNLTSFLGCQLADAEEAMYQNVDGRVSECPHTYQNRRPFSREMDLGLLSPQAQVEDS
Sequence of Calcium/calmodulin-dependent protein kinase type II subunit beta (Homo sapiens) (Q13554 whole entry): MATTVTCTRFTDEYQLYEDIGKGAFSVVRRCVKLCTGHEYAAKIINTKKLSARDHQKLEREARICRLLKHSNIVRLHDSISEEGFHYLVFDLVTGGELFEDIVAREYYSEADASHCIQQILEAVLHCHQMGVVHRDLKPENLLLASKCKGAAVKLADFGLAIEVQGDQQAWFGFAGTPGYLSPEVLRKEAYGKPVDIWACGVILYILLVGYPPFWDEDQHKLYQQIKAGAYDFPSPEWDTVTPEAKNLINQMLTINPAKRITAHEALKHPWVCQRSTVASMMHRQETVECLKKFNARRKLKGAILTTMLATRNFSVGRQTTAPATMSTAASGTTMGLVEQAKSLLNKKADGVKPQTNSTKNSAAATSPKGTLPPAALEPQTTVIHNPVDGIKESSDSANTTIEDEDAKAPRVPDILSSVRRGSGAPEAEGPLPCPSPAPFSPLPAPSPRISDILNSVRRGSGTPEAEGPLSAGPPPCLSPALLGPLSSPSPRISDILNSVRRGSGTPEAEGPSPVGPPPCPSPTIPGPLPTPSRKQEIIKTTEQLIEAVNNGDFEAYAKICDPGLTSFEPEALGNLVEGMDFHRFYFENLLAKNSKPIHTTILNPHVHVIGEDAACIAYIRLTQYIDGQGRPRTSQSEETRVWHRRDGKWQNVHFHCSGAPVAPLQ
Sequence of Death-associated protein kinase 3 (Homo sapiens) (O43293 whole entry, looked up): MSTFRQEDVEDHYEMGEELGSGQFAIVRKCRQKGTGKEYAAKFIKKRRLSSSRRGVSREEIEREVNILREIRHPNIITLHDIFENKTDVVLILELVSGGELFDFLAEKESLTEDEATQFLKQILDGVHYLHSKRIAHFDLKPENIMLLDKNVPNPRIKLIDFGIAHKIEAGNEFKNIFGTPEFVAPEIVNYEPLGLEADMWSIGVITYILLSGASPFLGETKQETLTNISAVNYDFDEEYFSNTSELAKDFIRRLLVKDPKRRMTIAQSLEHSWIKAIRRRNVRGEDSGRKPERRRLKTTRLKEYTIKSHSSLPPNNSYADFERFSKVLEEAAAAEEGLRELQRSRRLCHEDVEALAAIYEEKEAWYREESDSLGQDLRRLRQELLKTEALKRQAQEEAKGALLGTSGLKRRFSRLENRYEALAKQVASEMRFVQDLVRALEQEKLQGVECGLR
Sequence of CDK1/Cyclin A (Homo sapiens) (P06493 whole entry, looked up): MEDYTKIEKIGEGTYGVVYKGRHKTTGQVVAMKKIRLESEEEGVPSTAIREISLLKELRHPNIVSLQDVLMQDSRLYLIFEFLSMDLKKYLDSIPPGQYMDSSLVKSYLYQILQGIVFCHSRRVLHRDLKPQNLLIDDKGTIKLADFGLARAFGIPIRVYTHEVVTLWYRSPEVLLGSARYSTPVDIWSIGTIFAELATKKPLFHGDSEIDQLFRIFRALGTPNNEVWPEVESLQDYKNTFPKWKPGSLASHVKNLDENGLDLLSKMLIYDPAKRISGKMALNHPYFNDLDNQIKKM
Sequence of CDK1/Cyclin A (Homo sapiens) (P20248 whole entry, looked up): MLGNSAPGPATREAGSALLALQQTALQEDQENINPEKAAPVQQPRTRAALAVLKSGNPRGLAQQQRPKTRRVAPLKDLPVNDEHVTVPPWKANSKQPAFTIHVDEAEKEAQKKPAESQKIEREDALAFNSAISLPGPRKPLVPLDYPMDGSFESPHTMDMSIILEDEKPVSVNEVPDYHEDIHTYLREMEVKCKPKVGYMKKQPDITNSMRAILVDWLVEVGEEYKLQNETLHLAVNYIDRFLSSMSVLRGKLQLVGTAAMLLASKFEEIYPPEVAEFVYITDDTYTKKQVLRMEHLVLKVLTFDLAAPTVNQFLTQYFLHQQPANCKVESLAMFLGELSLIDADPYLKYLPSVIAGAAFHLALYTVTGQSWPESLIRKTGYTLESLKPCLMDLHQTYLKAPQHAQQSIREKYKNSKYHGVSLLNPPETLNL

residual activity [1] [%] | residual activity [3] [%] | residual activity [4] [%] | residual activity [5] [%] | residual activity [6] [%] | residual activity [7] [%] | residual activity [8] [%] | residual activity [9] [%] | residual activity [10] [%] | residual activity [11] [%] | Structure (SMILES) | residual activity [2] [%]
90 | 84 | 112 | 145 | 85 | 56 | 117 | 98 | 91 | 17 | COc1cc2c(Oc3ccc(-c4nc5ccccc5s4)cc3)ncnc2cc1OCCCN1CCCC1 | 89
97 | 92 | 105 | 116 | 89 | 67 | 129 | 104 | 92 | 12 | COc1cc2c(Oc3ccc(-c4nc5ccccc5s4)cc3)ncnc2cc1OCCCN1CCN(C)CC1 | 75
113 | 87 | 125 | 120 | 93 | 58 | 112 | 89 | 88 | 8 | COc1cc2c(Oc3ccc(-c4nc5ccccc5s4)cc3F)ncnc2cc1OCCCN1CCN(C)CC1 | 74
